Experimental data: PMC8876276 (Pharmaceutics, 2022)

Columns and labels:
[1] = system: GLP1R association with early endosomal-associated antigen 1 (EEA1); assay: GLP1R colocalization with early endosome marker EEA1, confocal microscopy, GLP1R-HEK293 cells; type: cell-based; conditions: 100 nM, 30 min; Pearson's correlation coefficient, 3 independent experiments; Figure 5d
Procedure: For immunofluorescence microscopy, GLP1R-HEK293 cells were seeded at a density of 25,000 cells/well in 96-well imaging plates (Greiner Bio-One) coated with poly-D-lysine. […] Twenty-four hours later, the cells were washed once with Optimem + Glutamax (Thermo Fisher Scientific, Watham, MA, USA) + 0.1% bovine serum albumin (BSA) (Sigma-Aldrich, St. Louis, MO, USA), and then incubated with Optimem + 0.1% BSA for 15 min at 37 °C. Compounds were diluted in Optimem + 0.1% BSA and cell incubations were performed at 37 °C for the timepoints indicated. The compounds were removed and the cells were washed three times with phosphate-buffered saline (PBS) prior to fixation for immunofluorescence microscopy or electron microscopy/NanoSIMS as described below. […]
Analysis of confocal microscopy micrographs was performed using scripts developed in Columbus analysis software (PerkinElmer, Waltham, MA, USA). […] Mean fluorescence intensity for the GLP1R staining was measured from this cell membrane ROI. Fluorescence intensities were normalized to those measured from untreated cells and expressed as mean per cell per well. For colocalization analyses, Pearson’s correlation co-efficient was calculated for the correlation between the red and green channels and expressed as mean per cell per well. […]
Pearson’s correlation co-efficient for GLP1R colocalization with EEA1 was calculated from cytoplasmic ROIs (d). […]

[2] = system: GLP1R localization with the late endosome marker LAMP1; assay: GLP1R colocalization with late endosome marker LAMP1, confocal microscopy, GLP1R-HEK293 cells; type: cell-based; conditions: 100 nM, 30 min; Pearson's correlation coefficient, 3 independent experiments; Figure 6d
From the text: Nuclei were counterstained with DAPI. Nuclei were counterstained with DAPI.

In the case of exenatide, the “GLP1R colocalization with EEA1” value [1] is reported as “GLP1R colocalization with EEA1 was observed” and the “GLP1R colocalization with LAMP1” value [2] is reported as “increase in the GLP1R colocalization with LAMP1”.
